Source: patent publication US20110071075A1, “PROMOTER FOR BICARBONATE SECRETION IN GASTROINTESTINAL TRACT” (priority 2008, published 2011)
“Also recorded” adds a separate entry of the source. *1 amine or outer side, *2 acyl side, *3 side chain or, on linkers, in order; H or OH if unused. Where no end group is shown, it is not given here. [ ]: non-standard residue; d: D form. γGlu = O=C(O)[C@H](CCC(=O)[*:2])N[*:1]

Tests used:
[1] = system: histamine-induced gastric acid secretion; assay: Histamine-induced gastric acid secretion in the removed, perfused stomach (pH-stat method); design: species or system male ddY mice; details: for histamine-induced gastric acid secretion: 100 μM histamine
Procedure: A model prepared in accordance with the method reported by Horie et al. (British Journal of Pharmacology 1994; 112: 87-92) was used as a model for histamine-induced gastric acid secretion. That is, 6-week-old male ddY mice were fasted for 18 hours, and the stomach was removed from each of the mice under anesthesia with urethane (1.25 g/kg/10 ml, intraperitoneal administration). A polyethylene cannula was inserted at each of the pyloric and esophageal sides of the stomach, and the stomach was left to stand still in an organ bath filled with a buffer (118.1 mM NaCl, 4.8 mM KCl, 1.0 mM KH2PO4, 16.0 mM Na2HPO4, 1.2 mM MgSO4, 0.65 mM CaCl2, and 31.6 mM glucose, saturated with 95% O2/5% CO2 gas, 37° C.). The intragastric pressure was kept at 15 cmH2O, and the lumen of the stomach was perfused with a buffer (135.8 mM NaCl, 4.8 mM KCl, 1.2 mM MgSO4, 1.3 mM CaCl2, and 31.6 mM glucose, pH 5.4, saturated with 95% O2/5% CO2 gas, 37° C.) at a flow rate of 1 ml/min
The acid secretion amount was continuously measured by dropping 10 mM NaOH to a perfusate until an end point of pH 5.4 by employing a pH-stat method (TOA, AUT-501). The intragastric acid secretion amount during no stimulation was measured for 30 minutes, and then the remove stomach left to stand still in the organ bath was treated with 100 μM histamine and cinacalcet (1.26, 12.6, and 126 μM). The gastric acid secretion amount was titrated for up to 90 minutes. The Dunnett's test was used as a statistical test for an effect of cinacalcet.
The gastric acid secretion was measured in accordance with the method of Example 2.

duodenum = assay: Bicarbonate secretion in the duodenum loop of anesthetized rats (pH-stat method); format: in vivo, male SD rats
Procedure: (§1) The bicarbonate secretion was evaluated in accordance with the methods of Aihara et al. (Aihara, E. et al. 2005. J. Pharmacol. Exp. Ther. 315: 423-432) and Kagawa et al. (Kagawa, S. et al. 2003. Digestive Diseases and Sciences 48: 1850-1856).
As for the bicarbonate secretion in the duodenum, the abdomen of each of male SD rats was opened under anesthesia, and a duodenum loop having a length of 1.7 cm from the pyloric ring of the stomach was prepared. The lumen of the loop was perfused with physiological saline saturated with 100% O2 gas (flow rate: 1 ml/min)
(§2) A drug was administered into the gastric or duodenal lumen after the bicarbonate secretion at the baseline had been measured for 30 minutes, and the bicarbonate secretion amount was measured every 10 minutes.
The abdomens of male SD rats were opened under anesthesia, and a duodenum loop having a length of 1.7 cm from the pyloric ring of the stomach was prepared. The lumen of the loop was perfused with physiological saline saturated with 100% O2 gas (flow rate: 1 ml/min).
After the bicarbonate secretion at the baseline had been measured for 30 minutes, distilled water for injection containing γ-EVG (100 mg/kg) or distilled water for injection (normal) was administered into the duodenal lumen, and the bicarbonate secretion amount was measured every 10 minutes.

NSAID-induced enteritis = assay: NSAID (loxoprofen)-induced enteritis, damaged area in the small intestine; format: in vivo, rats; details: 30 minutes before loxoprofen 60 mg/kg oral, 24 hours
Procedure: To non-fasting rats, distilled water for injection containing cinacalcet (1, 3, 10, and 100 mg/kg) or γ-EVG (100 mg/kg), or distilled water for injection (control) was orally administered. After 30 minutes, loxoprofen (60 mg/kg) was orally administered, and the rats were left to stand for 24 hours. 1 ml of 1% (w/w) Evans Blue dye was intravenously administered, and after 30 minutes, the rats were euthanized under deep ether anesthesia. The small intestine (from the duodenum to the ileum) of each of the rats was removed, then immersed in 2% formalin for 10 minutes so that the small intestine might be fixed from the serosal side, and incised from the opposite side of the mesentery, and the damaged area in the small intestine (mm^2) was measured with a dissecting microscope of 10 times power. The t-test or Dunnett's test was used for a statistical test and p<0.05 was considered significant.

stomach = assay: Bicarbonate secretion in the stomach of anesthetized rats (ex-vivo chamber, pH-stat method); design: species or system male SD rats; details: 10 mg/kg administered into the gastric lumen; omeprazole 60 mg/kg i.p. to inhibit acid secretion
Procedure: as §1
The bicarbonate secretion in the stomach was measured as described below. The abdomen of each of male SD rats was opened in the midline under anesthesia with urethane (1.25 g/kg/5 ml, intraperitoneal administration) to expose the stomach. The stomach was left to stand still in an ex-vivo chamber (Tamura Seisakusho; 3.1 cm^2) and perfused with physiological saline saturated with 100% O2 gas. In order to inhibit acid secretion, 60 mg/kg omeprazole was intraperitoneally administered. The bicarbonate secretion was continuously measured by dropping 2 mM HCl to a perfusate until an end point of pH 7.0 by employing a pH-stat method (TOA, AUT-501).
as §2

gastric mucosal D cells = assay: Somatostatin secretion of cultured fractionated gastric mucosal D cells (somatostatin ELISA); format: cell-based, male SD rat; details: 90 minutes culture
Procedure: The abdomen of each male SD rat was opened in the midline under anesthesia to remove the stomach. The stomach was ligated at the cardiac region and at the junction between the gastric body and the pylorus, and the pyloric region was excised. After that, the stomach was everted so that the luminal side is exposed outside. To the inside of the stomach, Buffer A containing 2.5 mg/ml protease (Sigma P6911, Protease, From Streptomyces griseus, 5.5 unit/mg solid) was injected to prepare a balloon. The balloon was shaken at 37° C. for 30 minutes in Buffer A for 30 minutes and in Buffer B for 30 minutes×three times. After that, the balloon was stirred three times in Buffer B containing 0.5 mg/ml DNase, the detached cells were centrifuged and then suspended in Buffer C. After the cell suspension had been filtered with a filter, cells were fractionated and collected with an elutriator manufactured by Hitachi, Ltd.
Repeated fractionation was conducted using an elutriator in accordance with Example 3 to collect D cells with high purity. After centrifugation, the cells were suspended in a cell culture medium (D-MEM/F-12 containing 10% FBS) and cultured in a CO2 incubator ([…]+5% CO2, 37° C.) (6×10^5 cells/250 μL/well). After 2-day culture, to the D cells washed with PBS was added each of CaSR agonists (20 μM cinacalcet (CCT), 20 μM γ-EVG, 10 mM phenylalanine (Phe), and 10 mM histidine (His)) mixed in a culture buffer (122 mM NaCl, 5 mM KCl, 25 mM NaHCO3, 1.3 mM MgSO4, 2 mM CaCl2, 15 mM HEPES, and 20 mM glucose, pH 7.4), and the cells were cultured for 90 minutes. After that, a culture supernatant was collected, filtered with a filter, and then measured for its somatostatin concentration with a somatostatin ELISA kit (manufactured by Phoenix, Calif.).
The somatostatin secretion was measured in accordance with the method of Example 4. After 2-day culture, to the D cells washed with PBS was added a CaSR agonist (20 μM γ-EVG), sodium glutamate (60 mM MSG), or a mixed solution thereof, mixed in a culture buffer (122 mM NaCl, 5 mM KCl, 25 mM NaHCO3, 1.3 mM MgSO4, 2 mM CaCl2, 15 mM HEPES, and 20 mM glucose, pH 7.4), and the cells were cultured for 90 minutes. After that, the culture supernatant was collected, filtered with a filter, and then the somatostatin concentration was measured by a somatostatin ELISA kit (Phoenix, Calif.).

Molecule: NCCc1c[nH]cn1 [histamine]
- gastric acid secretion ([1]; 100 μM histamine alone): promoted
- acid secretion amount ([1]; 100 μM histamine stimulation, 0.5 to 0.8 nEq/10 min during no stimulation): about 3.2 nEq/10 min

Molecule: C[C@@H](NCCCc1cccc(C(F)(F)F)c1)c1cccc2ccccc12.Cl [cinacalcet, (R)—N-(3-(3-trifluoromethylphenyl)propyl)-1-(1-naphthyl)ethylamine hydrochloride]
- bicarbonate secretion in the duodenum (duodenum; 10 mg/kg administered into the duodenal lumen): promoted
- damaged area in the small intestine (NSAID-induced enteritis; 1, 3, 10 and 100 mg/kg oral): reduced the damaged area dose-dependently
- histamine-induced gastric acid secretion ([1]; 12.6 μM cinacalcet): inhibited
- histamine-induced gastric acid secretion ([1]; cinacalcet 1.26, 12.6 and 126 μM): inhibited histamine-induced gastric acid secretion dose-dependently
- histamine-induced gastric acid secretion ([1]; concentration of 126 μM): completely inhibited
- bicarbonate secretion in the stomach (stomach): promoted
- somatostatin secretion (gastric mucosal D cells; 20 μM): remarkably promoted

Molecule: N[C@@H](Cc1ccccc1)C(=O)O [Phe, phenylalanine]
- somatostatin secretion (gastric mucosal D cells; 10 mM): remarkably promoted

Molecule: N[C@@H](CCC(=O)[O-])C(=O)[O-].[Na+].[Na+] [MSG, sodium glutamate]
- somatostatin secretion (gastric mucosal D cells; 60 mM MSG): remarkably inhibited

Molecule: [γGlu]-Val-Gly [γ-EVG]
- bicarbonate secretion in the duodenum (duodenum; 100 mg/kg administered into the duodenal lumen): promoted
- damaged area in the small intestine (NSAID-induced enteritis; 100 mg/kg oral): reduced the damaged area
- somatostatin secretion (gastric mucosal D cells; 20 μM): remarkably promoted; also recorded: markedly promoted

Molecule: N[C@@H](Cc1c[nH]cn1)C(=O)O [His, histidine]
- somatostatin secretion (gastric mucosal D cells; 10 mM): remarkably promoted
